{"source": "patent US20190166841A1", "about": "“Method for Controlling PPO Resistant Weeds” (BASF SE, priority 2016, published 2019)", "assay_type_in_all_cases": "in vivo", "key": {"[1]": {"test_system": "Amaranthus tamariscinus (Common waterhemp, AMATA), Sensitive biotype (w.1)", "test": "Greenhouse herbicidal activity test, sensitive waterhemp w.1", "settings": "use rate 4 g/ha, scale 0 to 100 (100 = complete destruction, 0 = no damage)", "from_the_text": "(§1) The culture containers used were plastic flowerpots containing loamy sand with approximately 3.0% of humus as the substrate. The seeds of the test plants were sown separately for each species and/or resistant biotype. For the pre-emergence treatment, the active ingredients, which had been suspended or emulsified in water, were applied directly after sowing by means of finely distributing nozzles. The containers were irrigated gently to promote germination and growth and subsequently covered with transparent plastic hoods until the plants had rooted. This cover caused uniform germination of the test plants, unless this had been impaired by the active ingredients. For the post-emergence treatment, the test plants were first grown to a height of 3 to 15 cm, depending on the plant habit, and only then treated with the active ingredients which had been suspended or emulsified in water. For this purpose, the test plants were either sown directly and grown in the same containers, or they were first grown separately as seedlings and transplanted into the test containers a few days prior to treatment. Depending on the species, the plants were kept at 10-25° C. or 20-35° C., respectively. The test period extended over 2 to 4 weeks. During this time, the plants were tended, and their response to the individual treatments was evaluated. The evaluation was carried out by using a scale from 0 to 100. […]"}, "[2]": {"test_system": "Amaranthus tamariscinus (Common waterhemp, AMATA), PPO resistant biotype 3 that was shown to contain the ΔG210 mutation (w.4)", "test": "Greenhouse herbicidal activity test, PPO resistant waterhemp w.4", "settings": "use rate 4 g/ha; PPO resistant biotype 3 with ΔG210 mutation; scale 0 to 100", "from_the_text": "as §1"}, "[3]": {"test_system": "Amaranthus tamariscinus (Common waterhemp, AMATA), PPO resistant biotype 2 (w.3)", "test": "Greenhouse herbicidal activity test, PPO resistant waterhemp w.3", "settings": "use rate 4 g/ha, scale 0 to 100", "from_the_text": "as §1"}, "[4]": {"test_system": "Amaranthus tamariscinus (Common waterhemp, AMATA), PPO resistant biotype 1 (w.2)", "test": "Greenhouse herbicidal activity test, PPO resistant waterhemp w.2", "settings": "use rate 4 g/ha, scale 0 to 100", "from_the_text": "as §1"}}}
{"smiles": "CCS(=O)(=O)Nc1cc(-n2nc(C(F)(F)F)n(C)c2=O)c(F)cc1C(N)=S", "note": "[(I).1, bencarbazone]", "values": [{"measurement": "Weed control (%) w.1", "setting": "[1]", "value": 92, "unit": "%"}, {"measurement": "Weed control (%) w.4", "setting": "[2]", "value": 82, "unit": "%"}, {"measurement": "Weed control (%) w.3", "setting": "[3]", "value": 100, "unit": "%"}, {"measurement": "Weed control (%) w.2", "setting": "[4]", "value": 100, "unit": "%"}]}
